The results in this text go back to patent publication US20210395239A1 (Hoffmann-La Roche Inc., priority 2018, published 2021).

In this test the target is T1, hTLR9 (Homo sapiens, UniProt Q9NR96).
T1 sequence (Q9NR96 26-1032): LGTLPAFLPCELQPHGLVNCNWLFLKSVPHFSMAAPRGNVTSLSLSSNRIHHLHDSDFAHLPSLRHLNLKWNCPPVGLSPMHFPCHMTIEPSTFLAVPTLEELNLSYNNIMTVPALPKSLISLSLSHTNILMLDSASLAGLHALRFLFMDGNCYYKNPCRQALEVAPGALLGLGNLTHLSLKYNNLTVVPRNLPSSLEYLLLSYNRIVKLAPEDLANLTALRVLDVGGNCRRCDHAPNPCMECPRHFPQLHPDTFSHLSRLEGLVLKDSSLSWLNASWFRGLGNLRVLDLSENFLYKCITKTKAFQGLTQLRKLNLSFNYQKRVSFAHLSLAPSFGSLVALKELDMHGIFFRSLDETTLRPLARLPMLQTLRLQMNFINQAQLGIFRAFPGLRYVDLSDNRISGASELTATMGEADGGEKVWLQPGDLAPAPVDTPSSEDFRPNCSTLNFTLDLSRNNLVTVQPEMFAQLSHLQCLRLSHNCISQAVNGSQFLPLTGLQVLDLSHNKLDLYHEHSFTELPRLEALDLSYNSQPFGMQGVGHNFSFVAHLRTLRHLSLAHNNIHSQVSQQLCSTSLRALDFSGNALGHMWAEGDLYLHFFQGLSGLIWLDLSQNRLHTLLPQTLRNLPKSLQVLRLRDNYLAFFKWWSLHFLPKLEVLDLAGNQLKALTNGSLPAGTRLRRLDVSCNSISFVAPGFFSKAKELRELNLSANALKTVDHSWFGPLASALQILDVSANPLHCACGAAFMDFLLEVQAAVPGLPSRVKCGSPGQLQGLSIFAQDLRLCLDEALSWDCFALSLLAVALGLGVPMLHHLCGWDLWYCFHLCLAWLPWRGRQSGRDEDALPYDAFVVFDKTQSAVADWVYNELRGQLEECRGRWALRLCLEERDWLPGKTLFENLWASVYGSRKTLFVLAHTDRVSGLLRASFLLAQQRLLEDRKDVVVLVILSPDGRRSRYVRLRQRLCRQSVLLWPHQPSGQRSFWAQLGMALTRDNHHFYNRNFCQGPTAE
Description: HEK293-Blue-hTLR-9 cells assay (SEAP reporter, ODN2006 stimulation). Conditions: HEK293-Blue-hTLR9 cells, ODN2006, 20 hrs; read-out: HEK/hTLR9 IC50. It counts as cell-based. More on the design: host or cells: HEK293 (HEK-Blue hTLR9). The method, boiled down: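 Antagonism read as lowered SEAP reporter absorbance (620–655 nm, QUANTI-Blue, 2 h, 37 °C) in supernatants. Before that, ODN2006-stimulated HEK293-Blue cells stably expressing human TLR9 were exposed to compound dilutions at 1% final DMSO for 20 h at 37 °C.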

Turning to `[2H]c1ccc2c(N3C[C@H](CN4CC(c5ccc(N6C[C@@H](N)[C@H](OC)C6)nc5)C4)O[C@H](C)C3)ccc(C#N)c2n1` [Example 149, 5-[(2S,6R)-2-[[3-[6-[(3R,4R)-3-amino-4-methoxy-pyrrolidin-1-yl]-3-pyridyl]azetidin-1-yl]methyl]-6-methyl-morpholin-4-yl]-2-deuterio-quinoline-8-carbonitrile], the IC50 stood at 68 nM. For `C[C@@H]1CN(c2ccc(C#N)n3ncc(F)c23)C[C@H](CN2CC(c3ccc(N4CC(C)(N)C4)nc3)C2)O1` [Example 158, 4-[(2S,6R)-2-[[3-[6-(3-amino-3-methyl-azetidin-1-yl)-3-pyridyl]azetidin-1-yl]methyl]-6-methyl-morpholin-4-yl]-3-fluoro-pyrazolo[1,5-a]pyridine-7-carbonitrile] the value was 41 nM.
